Source: article PMC7822819, “Discovery of a new class of integrin antibodies for fibrosis” (Scientific Reports, 2021)
Where two headings read alike, the source gives them in different places.

Legend:
human α5β1 = target: T1, human α5β1 (Homo sapiens, UniProt P05556+P08648); experiment: AlphaLISA integrin-ligand binding assay; assay type: biochemical
T1 construct: hα5 1 995; hβ1 1 728; made in house; host or cells: Expi293
Protocol: (§1) In the AlphaLISA integrin assays, we used a HEPES based buffer (25 mM HEPES pH 7.4, 137 mM NaCl, 1 mM MgCl2, 1 mM MnCl2, 2 mM CaCl2, 2.7 mM KCl, and 0.05% Tween-20). Optimal assay conditions were determined with a titration of the reagents for signal noise ratio (S/N), linear range, etc. For the respective integrins, we used the final concentrations described in Supplemental Table S3. Briefly, the testing antibody (8 μL) was added as a 4x (of Final testing concentration) solution in the HEPES buffer described previously into a 384w AlphaPlate (Perkin Elmer #6005350). Then the integrin and ligand were added sequentially as 8x (4 μL each). Plates were sealed and incubated at room temperature for 2 h. Then 4 × acceptor bead solution (8 μL) was added, and the plates were resealed and incubated at RT for 1 h. Finally, 4 × (8 μL) donor beads solution was added in a darkened room and incubated for 45 min at room temperature. Plates were read on the Envision (Perkin Elmer) in AlphaScreen mode within 3 h of donor bead addition.
(§2) Supplemental Table S3. integrin AlphaLIS A assay reagents and conditions Human A l phal i sa Inte gri n A ssays: Fi nal Condi ti ons […]
(§3) ( batch de pe nde nt) anti body A l phaLi sa A cce ptor havb1 1. 4 nM 1. 0 nMα - Fi brone cti n human Fi brone cti n n/a A cce ptor be ads/ Pe rki n 10. 0 ug/ m 10. 0 ug/ m […]
(§4) havb3 3. 0 nM 10. 0 nMhuman V i trone cti n- GST α - GS T A cce p t o r ug/ m Stre ptavi di n Donor ug/ m tagge d n/a be ads/ Pe rki n 15. 0 l be ads/ Pe rki n El me r 15. 0 l […]
(§5) havb6 0. 1 nM 0. 5 nM 3. […]
(§6) Mouse A l phal i sa Inte gri n A ssays: Fi nal Condi ti ons […]
(§7) m aV b 1 4. 3 nM 1. 0 nMmouse f i brone cti n A bcam α - Fi brone cti n ( Rabbi t […]
(§8) 0 nM 5. […] 0nM be ads/ Pe rki n El me r […]
(§9) m aV b 6 1. 4 nM 2. 5 nMmouse LA P- 6Hi s α - 6x HI S / P e rk i n El m e r ug/ m ug/ m m aV b 8 1. 0 nM 2. 5 nMChe mpartne rn/a( A L 128) 15 l 15 l

human αvβ5 = target: T2, human αvβ5 (Homo sapiens, UniProt P06756+P18084); experiment: AlphaLISA integrin-ligand binding assay; assay type: biochemical
T2 construct: hαV 1 992; hβ5 1 719; made in house; host or cells: Expi293
T2 sequence (P06756 31-992): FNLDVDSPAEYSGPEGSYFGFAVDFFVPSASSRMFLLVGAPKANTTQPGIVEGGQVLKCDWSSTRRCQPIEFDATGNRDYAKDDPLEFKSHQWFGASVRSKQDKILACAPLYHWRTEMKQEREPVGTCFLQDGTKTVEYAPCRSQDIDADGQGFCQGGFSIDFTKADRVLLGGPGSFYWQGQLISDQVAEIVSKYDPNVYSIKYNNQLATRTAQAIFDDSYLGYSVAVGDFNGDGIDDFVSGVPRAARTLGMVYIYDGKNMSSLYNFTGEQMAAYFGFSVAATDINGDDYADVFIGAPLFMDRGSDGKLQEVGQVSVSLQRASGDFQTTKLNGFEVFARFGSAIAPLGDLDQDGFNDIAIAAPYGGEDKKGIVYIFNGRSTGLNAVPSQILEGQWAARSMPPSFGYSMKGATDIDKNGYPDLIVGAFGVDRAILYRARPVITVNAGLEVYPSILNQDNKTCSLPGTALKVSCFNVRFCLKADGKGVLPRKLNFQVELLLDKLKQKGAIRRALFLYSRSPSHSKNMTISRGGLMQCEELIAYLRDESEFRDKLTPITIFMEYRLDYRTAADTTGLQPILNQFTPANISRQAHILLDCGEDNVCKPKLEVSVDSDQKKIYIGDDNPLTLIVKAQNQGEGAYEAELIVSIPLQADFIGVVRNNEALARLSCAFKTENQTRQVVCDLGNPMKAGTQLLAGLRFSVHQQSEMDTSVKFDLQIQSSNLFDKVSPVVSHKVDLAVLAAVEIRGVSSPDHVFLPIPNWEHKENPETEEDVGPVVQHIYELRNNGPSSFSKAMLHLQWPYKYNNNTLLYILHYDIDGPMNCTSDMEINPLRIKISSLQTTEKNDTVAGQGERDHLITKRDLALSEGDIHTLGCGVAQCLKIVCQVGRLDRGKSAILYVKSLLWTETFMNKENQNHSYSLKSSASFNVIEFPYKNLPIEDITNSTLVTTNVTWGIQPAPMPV
T2 sequence (P18084 24-719): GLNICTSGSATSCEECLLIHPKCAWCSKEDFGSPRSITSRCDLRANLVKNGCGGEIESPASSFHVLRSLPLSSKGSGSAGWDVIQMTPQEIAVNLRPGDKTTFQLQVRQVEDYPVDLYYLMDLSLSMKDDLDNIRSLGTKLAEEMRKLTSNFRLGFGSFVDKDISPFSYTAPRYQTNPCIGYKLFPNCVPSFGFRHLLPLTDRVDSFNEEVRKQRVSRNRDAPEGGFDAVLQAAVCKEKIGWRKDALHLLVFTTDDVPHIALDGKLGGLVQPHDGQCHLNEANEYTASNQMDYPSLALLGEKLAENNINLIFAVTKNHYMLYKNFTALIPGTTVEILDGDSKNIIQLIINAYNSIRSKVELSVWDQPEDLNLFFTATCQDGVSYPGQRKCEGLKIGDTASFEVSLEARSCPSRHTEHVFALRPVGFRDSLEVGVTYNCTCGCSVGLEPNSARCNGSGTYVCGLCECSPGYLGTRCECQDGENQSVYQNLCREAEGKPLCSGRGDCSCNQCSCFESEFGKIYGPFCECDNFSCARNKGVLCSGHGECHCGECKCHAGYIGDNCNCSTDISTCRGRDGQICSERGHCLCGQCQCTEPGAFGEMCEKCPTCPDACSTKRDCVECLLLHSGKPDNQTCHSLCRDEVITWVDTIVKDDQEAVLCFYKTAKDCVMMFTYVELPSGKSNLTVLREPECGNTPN
Protocol: as §1, §2, §3, §4, §5, §6, §7, §8, §9

mouse α5β1 = target: T3, mouse α5β1 (Mus musculus, UniProt P09055+P11688); experiment: AlphaLISA integrin-ligand binding assay; assay type: biochemical; conditions: Fig. 4B; read-out: IC50 Mouse integrin AlphaLISA assays: mα5β1
T3 construct: mα5 1 999; m β1 1 728; made in house; host or cells: Expi293
Protocol: as §1, §2, §3, §4, §5, §6, §7, §8, §9

[1] = test system: normal human lung fibroblasts; experiment: TGFβ-induced αSMA high-content imaging; assay type: cell-based; conditions: 10 μM, 30 min pre-treatment, TGFβ 5 ng/mL, 48 h
Protocol: Normal human lung fibroblasts (Lonza) and Primary Human IPF Lung Parenchymal Fibroblasts (Donor2) (BioIVT, #PCR-70-0214) were incubated at 37 °C and 5% CO2. To induce fibrotic response in primary cells, a final concentration of 5 ng/ml of recombinant human TGFβ1 (BioLegend, #580702) was added to the culture media and treated for 24 ~ 48 h. Anti-TGFβ neutralizing antibody (1D11) and the isotype control mouse IgG1 were from BioXcell. SB-525334 and bleomycin were from Sigma. MK-0429 was synthesized by Merck & Co., Inc., Kenilworth, NJ, USA. CHOK1-integrin stable lines were cultured in DMEM/F12, Glutamax (Gibco #10565018), 10% FBS (Gibco 310091148), 1 × Pen/Strep (Gibco 315140-148), and 6 ug/mL Puromycin (Gibco #A1113803).
Primary cells (passage 3–5) were grown on Cell carrier Ultra, col1 coated 96-well plates (Perkin Elmer, #6055700) at a density of 25,000 cells/well. Once the cells adhere, they were starved in serum free media for 24 h followed by addition of treatments i.e. 5 ng/mL TGFβ (Biolegend #580702) ± inhibitors. Cells were pre-treated with inhibitors for 30 min prior to the addition of TGFβ stimulation. 48hours post treatment, the cells were fixed in 4% methanol free paraformaldehyde (ThermoFisher Scientific #28908) for 20 min at room temperature and incubated with anti-alpha smooth muscle Actin antibody (Abcam #ab7817) at 1:4000 overnight at 4 °C. […]

human αvβ1 = human αvβ1 (Homo sapiens, UniProt P05556+P06756); experiment: Latent TGFβ activation assay (TMLC / CHOK1-integrin co-culture, PAI-1 luciferase); assay type: cell-based; set-up: expressed in transfected cells; conditions: in words
Protocol: (§10) Transfected mink lung epithelial cell (TMLC) cell line containing the TGFβ responsive PAI-1 promoter driving luciferase expression[29] and the CHO-K1 human and mouse αvβx integrin cell lines were grown under optimized growth conditions to 90% confluency. TMLC cells were trypsinized and plated at 25,000 cells/well in 50 μL in Costar clear bottom white walled plates. In a separate plate, 25 μL of serially diluted antibodies at 4X concentration were added to wells containing 25 μL of either 25,000 cells of human or mouse αvβx cells. After a brief mixing, the 50 μL mixture was transferred to the TMLC cell plates for a total volume of 100 μL and incubated at 37 °C for 16 h. 100 μL of ONE-Glo kit (#PRE6120) was added to each well and read after 3–5 min on the Envision plate reader.

human αvβ6 = human αvβ6 (Homo sapiens, UniProt P06756+P18564); experiment: as above; assay type: cell-based; set-up: expressed in transfected cells; conditions: in words
Chain of human αvβ6 (P06756 31-1048): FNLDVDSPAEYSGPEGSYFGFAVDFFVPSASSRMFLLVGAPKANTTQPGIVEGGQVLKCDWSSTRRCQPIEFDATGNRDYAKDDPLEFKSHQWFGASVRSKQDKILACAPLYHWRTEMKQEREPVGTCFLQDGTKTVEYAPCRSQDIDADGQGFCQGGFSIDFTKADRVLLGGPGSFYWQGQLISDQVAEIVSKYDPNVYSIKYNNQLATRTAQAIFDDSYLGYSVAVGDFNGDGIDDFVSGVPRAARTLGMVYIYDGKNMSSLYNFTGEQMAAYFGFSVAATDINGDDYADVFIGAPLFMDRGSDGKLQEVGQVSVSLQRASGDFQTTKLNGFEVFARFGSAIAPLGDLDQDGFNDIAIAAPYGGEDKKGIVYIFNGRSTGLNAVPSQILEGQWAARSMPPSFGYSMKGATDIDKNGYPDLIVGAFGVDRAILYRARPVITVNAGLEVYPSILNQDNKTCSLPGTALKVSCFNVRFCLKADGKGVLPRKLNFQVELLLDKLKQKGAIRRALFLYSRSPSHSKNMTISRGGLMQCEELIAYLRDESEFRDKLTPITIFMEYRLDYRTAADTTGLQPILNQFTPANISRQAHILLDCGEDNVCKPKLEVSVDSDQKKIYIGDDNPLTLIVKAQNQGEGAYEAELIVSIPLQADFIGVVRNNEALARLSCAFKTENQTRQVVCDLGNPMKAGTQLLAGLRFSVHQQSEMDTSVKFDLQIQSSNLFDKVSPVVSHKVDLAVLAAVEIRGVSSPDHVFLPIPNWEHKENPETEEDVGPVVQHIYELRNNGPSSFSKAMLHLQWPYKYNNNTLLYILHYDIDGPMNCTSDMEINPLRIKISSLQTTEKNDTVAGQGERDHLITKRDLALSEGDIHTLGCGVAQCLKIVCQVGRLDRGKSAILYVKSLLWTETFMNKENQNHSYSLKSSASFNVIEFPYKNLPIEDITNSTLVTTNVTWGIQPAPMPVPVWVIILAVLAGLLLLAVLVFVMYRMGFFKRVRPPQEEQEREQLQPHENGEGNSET
Chain of human αvβ6 (P18564 22-788): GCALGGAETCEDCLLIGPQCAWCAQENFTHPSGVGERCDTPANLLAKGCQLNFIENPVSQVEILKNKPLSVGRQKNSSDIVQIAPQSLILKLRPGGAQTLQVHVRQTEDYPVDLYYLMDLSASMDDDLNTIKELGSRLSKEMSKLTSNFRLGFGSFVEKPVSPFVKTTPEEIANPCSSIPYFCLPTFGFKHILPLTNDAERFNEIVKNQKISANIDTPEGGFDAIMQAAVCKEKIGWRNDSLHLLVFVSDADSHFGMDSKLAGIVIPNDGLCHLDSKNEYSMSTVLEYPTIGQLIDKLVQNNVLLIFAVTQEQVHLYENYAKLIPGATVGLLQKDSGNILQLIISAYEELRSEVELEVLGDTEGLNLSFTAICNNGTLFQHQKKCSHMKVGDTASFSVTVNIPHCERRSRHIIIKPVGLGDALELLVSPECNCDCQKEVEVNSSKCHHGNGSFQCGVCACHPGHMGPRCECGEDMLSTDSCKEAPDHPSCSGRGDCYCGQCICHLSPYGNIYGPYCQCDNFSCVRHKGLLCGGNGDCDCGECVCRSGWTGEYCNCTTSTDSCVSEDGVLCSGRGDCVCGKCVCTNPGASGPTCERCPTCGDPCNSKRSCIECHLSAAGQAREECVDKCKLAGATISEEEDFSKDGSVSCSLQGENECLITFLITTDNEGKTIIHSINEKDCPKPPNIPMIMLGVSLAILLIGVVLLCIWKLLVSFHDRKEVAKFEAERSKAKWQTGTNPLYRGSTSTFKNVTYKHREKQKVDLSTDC
Protocol: as §10

human αvβ8 = human αvβ8 (Homo sapiens, UniProt P06756+P26012); experiment: as above; assay type: cell-based; set-up: expressed in transfected cells; conditions: in words
Protocol: as §10

mouse αvβ1 = mouse αvβ1 (Mus musculus, UniProt P09055+P43406); experiment: as above; assay type: cell-based; set-up: expressed in transfected cells; conditions: in words
Protocol: as §10

T1 sequence (P08648 42-995): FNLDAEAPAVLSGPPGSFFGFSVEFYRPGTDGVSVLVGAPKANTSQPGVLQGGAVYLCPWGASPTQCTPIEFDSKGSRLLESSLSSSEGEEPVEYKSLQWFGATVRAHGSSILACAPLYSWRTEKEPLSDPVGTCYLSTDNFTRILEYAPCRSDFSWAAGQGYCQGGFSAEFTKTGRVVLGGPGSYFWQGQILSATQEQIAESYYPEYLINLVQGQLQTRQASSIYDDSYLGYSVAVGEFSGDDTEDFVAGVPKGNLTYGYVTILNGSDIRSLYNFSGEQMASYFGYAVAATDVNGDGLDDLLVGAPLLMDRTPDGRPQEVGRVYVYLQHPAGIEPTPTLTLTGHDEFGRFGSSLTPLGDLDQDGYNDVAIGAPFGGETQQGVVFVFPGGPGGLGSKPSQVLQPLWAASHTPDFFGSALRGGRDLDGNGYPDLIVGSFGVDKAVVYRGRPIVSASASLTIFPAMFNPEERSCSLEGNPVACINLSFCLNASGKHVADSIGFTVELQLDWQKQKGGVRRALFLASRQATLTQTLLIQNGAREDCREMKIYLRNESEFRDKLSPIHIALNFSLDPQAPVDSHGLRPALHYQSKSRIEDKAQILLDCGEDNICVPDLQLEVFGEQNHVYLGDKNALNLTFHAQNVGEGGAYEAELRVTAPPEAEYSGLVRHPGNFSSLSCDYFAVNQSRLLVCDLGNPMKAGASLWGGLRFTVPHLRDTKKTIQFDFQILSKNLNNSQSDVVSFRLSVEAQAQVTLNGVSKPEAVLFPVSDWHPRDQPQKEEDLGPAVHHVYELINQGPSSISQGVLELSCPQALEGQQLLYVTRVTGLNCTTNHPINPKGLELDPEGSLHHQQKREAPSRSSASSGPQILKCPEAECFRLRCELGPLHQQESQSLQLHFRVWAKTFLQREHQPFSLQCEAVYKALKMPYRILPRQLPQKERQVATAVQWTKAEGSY
T1 sequence (P05556 21-728): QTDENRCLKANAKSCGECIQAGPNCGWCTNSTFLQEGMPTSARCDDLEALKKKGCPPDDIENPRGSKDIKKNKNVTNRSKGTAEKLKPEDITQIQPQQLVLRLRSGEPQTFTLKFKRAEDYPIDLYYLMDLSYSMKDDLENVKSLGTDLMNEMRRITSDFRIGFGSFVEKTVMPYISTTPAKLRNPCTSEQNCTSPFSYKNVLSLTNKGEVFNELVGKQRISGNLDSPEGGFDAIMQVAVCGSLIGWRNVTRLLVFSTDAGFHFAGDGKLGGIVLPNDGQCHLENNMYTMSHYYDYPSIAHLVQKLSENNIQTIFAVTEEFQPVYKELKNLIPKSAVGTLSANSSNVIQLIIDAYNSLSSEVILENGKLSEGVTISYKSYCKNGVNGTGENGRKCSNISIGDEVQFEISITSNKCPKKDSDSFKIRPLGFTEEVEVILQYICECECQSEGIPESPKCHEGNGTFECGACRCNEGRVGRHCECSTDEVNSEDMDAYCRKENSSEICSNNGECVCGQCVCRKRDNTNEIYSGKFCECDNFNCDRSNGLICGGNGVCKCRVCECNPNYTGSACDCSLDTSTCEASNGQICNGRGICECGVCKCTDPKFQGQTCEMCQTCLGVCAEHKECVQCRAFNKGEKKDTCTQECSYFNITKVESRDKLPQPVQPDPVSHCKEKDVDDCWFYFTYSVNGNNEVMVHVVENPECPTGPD

IC50 (human α5β1; Fig. 3D, assay optimisation, read-out: IC50 human α5β1 AlphaLISA): 17.3 nM
IC50 (human α5β1; Fig. 4B, read-out: IC50 Human integrin AlphaLISA assays: hα5β1): 26.5 nM
IC50 (human αvβ5; Fig. 3D, assay optimisation, read-out: IC50 human αvβ5 AlphaLISA): 9.9 nM
IC50 (human αvβ5; Fig. 4B, read-out: IC50 Human integrin AlphaLISA assays: hαvβ5): 2.9 nM
IC50 (mouse α5β1): 50.3 nM
Inhibition of latent TGFβ activation, human αvβ1 co-culture (human αvβ1): strong inhibitory effect
Inhibition of latent TGFβ activation, human αvβ6 co-culture (human αvβ6): strong inhibitory effect
Inhibition of latent TGFβ activation, human αvβ8 co-culture (human αvβ8): strong inhibitory effect
Inhibition of latent TGFβ activation, mouse αvβ1 co-culture (mouse αvβ1): strong inhibitory effect
Compound: COc1ccc(C(CC(=O)O)N2CCN(CCCc3ccc4c(n3)NCCC4)C2=O)cn1 (stereo not shown) [MK-0429]
αSMA intensity and percentage of stimulated cells following TGFβ treatment [1]: significantly reduced
